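Cultured in 96-well plates, cells were exposed to test compound for 48 hours across five concentrations. GI50 is the concentration that inhibits growth by half.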 The source made the active and inactive calls. Rule as the data show it: active = GI50 up to about 1.1 µM and inactive = higher.
Columns and labels:
Assay in all cases: NCI anticancer screen, dose series, 48 h
OVCAR-8 = system: OVCAR-8
MDA-N = system: MDA-N
ACHN = system: ACHN
MOLT-4 = system: MOLT-4
SF-539 = system: SF-539
SK-OV-3 = system: SK-OV-3
COLO 205 = system: COLO 205
U-251 = system: U-251
SK-MEL-28 = system: SK-MEL-28
MDA-MB-231 = system: MDA-MB-231
KM12 = system: KM12
RPMI-8226 = system: RPMI-8226
NCI-H23 = system: NCI-H23
K562 = system: K562
OVCAR-4 = system: OVCAR-4
A498 = system: A498
MDA-MB-435 = system: MDA-MB-435
786-0 = system: 786-0
SNB-19 = system: SNB-19
DU-145 = system: DU-145

Measured: GI50

O=C1C=CC(=O)[C@H]2C3C=CC(C4C3C3(Cl)C(Cl)=C(Cl)[C@]4(Cl)C3(Cl)Cl)[C@@H]12 (stereo not given in full)
inactive: OVCAR-8 8.47 µM | MDA-N 4.52 µM | ACHN 8.55 µM | MOLT-4 3.75 µM | SF-539 5.28 µM | SK-OV-3 14.2 µM | COLO 205 5.7 µM | U-251 3.46 µM | SK-MEL-28 4.91 µM | MDA-MB-231 4.45 µM | KM12 4.92 µM | RPMI-8226 3.3 µM | NCI-H23 12.6 µM | K562 3.14 µM | OVCAR-4 4.4 µM | A498 16 µM | MDA-MB-435 2.51 µM | 786-0 5.94 µM | SNB-19 5.62 µM | DU-145 8.97 µM

CCOCCOC(=O)C1CCC(=O)N1CN(C(C)=O)c1cc(OC)ccc1OC (stereo not given)
inactive: OVCAR-8 > 100 µM | MDA-N > 100 µM | ACHN > 100 µM | MOLT-4 > 100 µM | SF-539 > 100 µM | SK-OV-3 > 100 µM | COLO 205 > 100 µM | U-251 > 100 µM | SK-MEL-28 > 100 µM | MDA-MB-231 > 100 µM | KM12 > 100 µM | RPMI-8226 > 100 µM | NCI-H23 > 100 µM | K562 > 100 µM | OVCAR-4 > 100 µM | A498 > 100 µM | MDA-MB-435 > 100 µM | 786-0 > 100 µM | SNB-19 > 100 µM | DU-145 > 100 µM

C#CCn1ncc2c(SCc3ccccc3)ncnc21
inactive: OVCAR-8 > 100 µM | MDA-N > 100 µM | ACHN > 100 µM | MOLT-4 11.8 µM | SF-539 > 100 µM | SK-OV-3 > 100 µM | COLO 205 > 100 µM | U-251 > 100 µM | SK-MEL-28 > 100 µM | MDA-MB-231 > 100 µM | KM12 > 100 µM | RPMI-8226 > 100 µM | NCI-H23 > 100 µM | K562 52.7 µM | OVCAR-4 > 100 µM | A498 > 100 µM | MDA-MB-435 99.5 µM | 786-0 > 100 µM | SNB-19 > 100 µM | DU-145 > 100 µM
